Test results: patent US20220184081A1, “ANTIPRURITIC AGENT USING PAC1 RECEPTOR ANTAGONIST” (KAGOSHIMA UNIVERSITY, priority 2019, published 2022)

Columns and labels:
[1] = molecular target: T1, mouse VPAC1 receptor (Mus musculus, UniProt P97751); test: CREB phosphorylation by PACAP stimulus, Western blot, VPAC1/CHO cells; assay type: cell-based; details: PA-8 10 pM to 10 nM, FIG. 4B
T1 construct: expressed in transfected cells; host or cells: CHO cells
T1 sequence (P97751 31-459): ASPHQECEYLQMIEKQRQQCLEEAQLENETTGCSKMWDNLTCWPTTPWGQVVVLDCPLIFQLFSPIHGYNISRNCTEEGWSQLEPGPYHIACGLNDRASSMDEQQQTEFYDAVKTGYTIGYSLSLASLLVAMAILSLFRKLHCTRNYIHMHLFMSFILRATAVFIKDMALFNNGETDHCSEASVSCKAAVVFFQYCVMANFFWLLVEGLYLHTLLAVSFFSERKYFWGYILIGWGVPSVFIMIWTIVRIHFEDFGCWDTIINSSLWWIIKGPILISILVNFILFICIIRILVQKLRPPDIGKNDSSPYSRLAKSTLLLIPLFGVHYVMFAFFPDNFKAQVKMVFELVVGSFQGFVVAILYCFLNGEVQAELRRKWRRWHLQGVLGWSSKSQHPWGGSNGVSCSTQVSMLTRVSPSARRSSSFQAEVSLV
Experimental: The effect of each compound on the phosphorylation of CREB (cAMP-responsive element-binding protein) produced by a PACAP stimulus was examined by Western blot analysis using an anti-phosphorylated CREB (pCREB) antibody with a mouse PAC1 receptor-expressing CHO cells (PAC1/CHO cells) and a mouse VPAC1 receptor-expressing CHO cells (VPAC1/CHO cells).
Specifically, treatment with a compound (PA-8, compound 2j and compound 2o) at 10 pM to 10 nM or a solvent therefor, DMSO (VEH: 0.1% DMSO-containing phosphate buffer solution) was performed for 30 minutes, 1 nM PACAP was then added, and protein was recovered within 30 minutes after a PACAP stimulus.

[2] = tested on: psoriasis mouse model; test: Psoriasis mouse model (imiquimod); assay type: in vivo, ICR mice; details: 30 mg/kg p.o. 30 minutes before 1 hour video observation; FIG. 14
Experimental: The present test was carried out with reference to the method of van der Fits et al. that is a test system published as a method for evaluating itch in animals (van der Fits L., Mounts S., Voerman J S A., et al.: Imiquimod-Induced Psoriasis-Like Skin Inflammation in Mice Is Mediated via the IL-23/IL-17 Axis, J. Immunol., 182, 5836-5845, 2009).
Five-week-old ICR mice (20 mice) were each placed in a cage, and were then conditioned for 1 week. Thereafter, three days before initiation of the test, the waist of each mouse was shaved. Then, 62.5 mg of commercially available imiquimod cream (5% Beselna Cream; MOCHIDA PHARMACEUTICAL CO., LTD.) was applied onto the shaved waist skin of the mice once a day for 5 days, so as to produce imiquimod-induced psoriasis model. Twenty-four hours after the final application of the cream (Day 5), video observation was carried out for 1 hour. The shaved 20 mice were divided into 5 groups (4 mice per group), namely, a 30 mg/kg PA-8 oral (p.o.) administration group, a 30 mg/kg compound 2o oral (p.o.) administration group, a 30 mg/kg PA-9 oral (p.o.) administration group, a 30 mg/kg compound 3d (p.o.) administration group, and a solvent administration group (VEH: oral administration of 10% DMSO aqueous solution). Oral administration was carried out 30 minutes before initiation of the video observation.

[3] = tested on: serotonin (5-HT)-induced itch mouse model; test: Serotonin (5-HT)-induced itch mouse model; assay type: in vivo; details: intrathecal pre-administration 30 minutes before 5-HT 50 nmol i.d.; PA-8 0.1 or 1 nmol; P6-38 100 pmol; FIG. 1
Experimental: 5-HT (50 nmol, 10 μL) was intradermally injected into the waist of each mouse (intradermal injection, i.d.). The reaction of the mice to bite, lick or scratch the injected site was defined as an itch behavior, and the action time was measured every 5 minutes. […] SLN indicates the effects obtained in the case of administering normal saline instead of 5-HT. ACSF is an abbreviation of an artificial cerebrospinal fluid, which was a solvent for P6-38 and PA-8.

[4] = tested on: atopic dermatitis mouse model; test: Atopic dermatitis mouse model (DNFB); assay type: in vivo, ICR mice; details: 30 mg/kg p.o. 30 minutes before 1 hour video observation; FIG. 13
Experimental: The present test was carried out with reference to the method of Kitamura et al. that is a test system published as a method for evaluating itch in animals (Kitamura A., Takata R., Aizawa S., et al.: A murine model of atopic dermatitis can be generated by painting the dorsal skin with hapten twice 14 days apart, Scientific Rep., 8: 5988, 2018).
Five-week-old ICR mice (30 mice) were each placed in a cage, and were then conditioned for 1 week. Thereafter, three days before initiation of the test, the waist of each mouse was shaved. On the experiment start date, for the purpose of destroying the function of skin barrier, tape stripping was carried out, and 0.15% 2,4-dinitrofluorobenzene (DNFB) solution [acetone/olive oil (3:1)] was applied to the shaved waist of each mouse, using a 100-μIL pipette. Seven days later, the 0.15% DNFB solution was applied thereto once again, and two hours later, video observation was carried out for 1 hour. The shaved 30 mice were divided into 5 groups (6 mice per group), namely, a 30 mg/kg PA-8 oral (p.o.) administration group, a 30 mg/kg compound 2o oral (p.o.) administration group, a 30 mg/kg PA-9 oral (p.o.) administration group, a 30 mg/kg compound 3d (p.o.) administration group, and a solvent administration group (VEH: oral administration of 10% DMSO aqueous solution). Oral administration was carried out 30 minutes before initiation of the video observation.
An outline of the procedures of a behavioral experiment using the atopic dermatitis mouse model is shown in FIG. 12, and the results obtained by evaluating the time spent in scratching of each group are shown in FIG. 13.

[5] = tested on: chloroquine-induced itch behavior in mice; test: Itch behavior induced by chloroquine intradermal administration; assay type: in vivo, mouse; details: intrathecal pre-administration (i.t., 10 minutes before i.d.), 1 nmol; chloroquine 100 μg/10 μL; FIG. 10
Experimental: Chloroquine (100 μg/10 μL) was intradermally injected into the waist of each mouse (intradermal injection, i.d.). The reaction of biting, licking or scratching the injected site was defined as itch behavior, and the behavioral time was counted every 5 minutes. […] DMSO (10% solution, dissolved in normal saline) is a solvent for PA-8 or PA-9.

## C=CCOc1ccc(C2CC(=O)Nc3nc(N)[nH]c(=O)c32)cc1OC (centres unmarked) [PA-8]
[1]
  CREB phosphorylation by PACAP (1 nM): did not suppress CREB phosphorylation
[2]
  itch behavior induced by application of imiquimod (time spent in scratching): significantly suppressed
[3]
  5-HT-induced itch behavior (bite, lick or scratch the injected site, action time): almost completely suppressed
[4]
  itch behavior induced by the DNFB treatment (time spent in scratching): significantly suppressed
[5]
  chloroquine-induced itch behavior: almost completely suppressed
